Measurements taken from patent US11051515B2, “3-acyl-benzamides and their use as herbicides” (Bayer Aktiengesellschaft, priority 2017, dated 2021).

Tests used:
[1] = test system: AMARE; experiment: Pre-emergence action against AMARE; assay type: in vivo, Amaranthus retroflexus; details: pre-emergence, dosage 320 g/ha, scored visually after 3 weeks vs untreated controls
How it was run: (§1)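 Seeds sown in sandy loam in wood-fiber pots and covered with soil. Greenhouse growth; visual damage scored after 3 weeks versus untreated controls (100% = dead, 0% = like control).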

[2] = test system: AMARE; experiment: Post-emergence action against AMARE; assay type: in vivo, Amaranthus retroflexus; details: post-emergence, dosage 80 g/ha, visual assessment about 3 weeks after treatment vs untreated controls
How it was run: (§2)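 Post-emergence foliar spray on greenhouse plants at the one-leaf stage, using wettable-powder or emulsion-concentrate formulations in water (600 to […], plus 0.2% wetting agent). Damage scored by eye roughly 3 weeks later against untreated plants: 0% = like control, 100% = dead.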

[3] = test system: VERPE; experiment: Pre-emergence action against VERPE; assay type: in vivo, Veronica persica; details: Dosage 320 g/ha, pre-emergence
How it was run: as §1

[4] = test system: VERPE; experiment: Post-emergence action against VERPE; assay type: in vivo, Veronica persica; details: dosage 80 g/ha
How it was run: as §2

[5] = test system: AVEFA; experiment: Pre-emergence action against AVEFA; assay type: in vivo, Avena fatua; details: dosage 320 g/ha, scored visually after 3 weeks vs untreated controls
How it was run: as §1

[6] = test system: STEME; experiment: Pre-emergence action against STEME; assay type: in vivo, Stellaria media; details: Dosage 320 g/ha, pre-emergence
How it was run: as §1

[7] = test system: SETVI; experiment: Pre-emergence action against SETVI; assay type: in vivo, Setaria viridis; details: pre-emergence, dosage 320 g/ha, scored visually after 3 weeks vs untreated controls
How it was run: as §1

[8] = test system: HORMU; experiment: Pre-emergence action against HORMU; assay type: in vivo, Hordeum murinum; details: Dosage 320 g/ha
How it was run: as §1

[9] = test system: VIOTR; experiment: Post-emergence action against VIOTR; assay type: in vivo, Viola tricolor; details: post-emergence, dosage 80 g/ha
How it was run: as §2

[10] = test system: ECHCG; experiment: Pre-emergence action against ECHCG; assay type: in vivo, Echinochloa crus-galli; details: pre-emergence, dosage 320 g/ha, scored visually after 3 weeks vs untreated controls
How it was run: as §1

[11] = test system: PHBPU; experiment: Pre-emergence action against PHBPU; assay type: in vivo, Pharbitis purpurea; details: Dosage 320 g/ha, pre-emergence
How it was run: as §1

[12] = test system: HORMU; experiment: Post-emergence action against HORMU; assay type: in vivo, Hordeum murinum; details: dosage 80 g/ha
Experimental: Seeds of monocotyledonous and dicotyledonous weed and crop plants are laid out in sandy loam soil in wood-fiber pots, covered with soil and cultivated in a greenhouse under good growth conditions. 2 to 3 weeks after sowing, the test plants are treated at the one-leaf stage. The compounds of the invention, formulated in the form of wettable powders (WP) or as emulsion concentrates (EC), are then sprayed onto the green parts of the plants in the form of an aqueous suspension or emulsion at a water application rate equating to […], with addition of 0.2% wetting agent. After the test plants have been left to stand in the greenhouse under optimal growth conditions for about 3 weeks, the action of the preparations is assessed visually in comparison to untreated controls (herbicidal action in percent (%): 100% activity=the plants have died, 0% activity=like control plants). […] At the same time, inventive compounds leave Gramineae crops such as barley, wheat, rye, millet/Sorghum, corn or rice virtually undamaged when applied post-emergence, even at high active ingredient dosages. In addition, some substances are also harmless to dicotyledonous crops such as soya, cotton, oilseed rape, sugar beet or potatoes. Some of the compounds according to the invention have high selectivity and are therefore suitable for controlling unwanted vegetation in agricultural crops by the post-emergence method. The data of Tables B18 to B34 below illustrate, in an exemplary manner, the […] herbicidal action of the compounds according to the invention, the herbicidal activity being stated in percent.

[13] = test system: ABUTH; experiment: Post-emergence action against ABUTH; assay type: in vivo, Abutilon theophrasti; details: post-emergence, dosage 80 g/ha, visual assessment about 3 weeks after treatment vs untreated controls
How it was run: as §2

[14] = test system: ABUTH; experiment: Pre-emergence action against ABUTH; assay type: in vivo, Abutilon theophrasti; details: pre-emergence, dosage 320 g/ha, scored visually after 3 weeks vs untreated controls
How it was run: as §1

[15] = test system: MATIN; experiment: Post-emergence action against MATIN; assay type: in vivo, Matricaria inodora; details: post-emergence, dosage 80 g/ha, visual assessment about 3 weeks after treatment vs untreated controls
How it was run: as §2

[16] = test system: CYPES; experiment: Post-emergence action against CYPES; assay type: in vivo, Cyperus esculentus; details: post-emergence, dosage 80 g/ha, visual assessment about 3 weeks after treatment vs untreated controls
How it was run: as §2

[17] = test system: STEME; experiment: Post-emergence action against STEME; assay type: in vivo, Stellaria media; details: post-emergence, dosage 80 g/ha
How it was run: as §2

[18] = test system: MATIN; experiment: Pre-emergence action against MATIN; assay type: in vivo, Matricaria inodora; details: Dosage 320 g/ha, pre-emergence
How it was run: as §1

[19] = test system: PHBPU; experiment: Post-emergence action against PHBPU; assay type: in vivo, Pharbitis purpurea; details: post-emergence, dosage 80 g/ha
How it was run: as §2

[20] = test system: ALOMY; experiment: Post-emergence action against ALOMY; assay type: in vivo, Alopecurus myosuroides; details: Dosage 80 g/ha, post-emergence
How it was run: as §2

[21] = test system: ECHCG; experiment: Post-emergence action against ECHCG; assay type: in vivo, Echinochloa crus-galli; details: post-emergence, dosage 80 g/ha, visual assessment about 3 weeks after treatment vs untreated controls
How it was run: as §2

[22] = test system: AVEFA; experiment: Post-emergence action against AVEFA; assay type: in vivo, Avena fatua; details: post-emergence, dosage 80 g/ha, visual assessment about 3 weeks after treatment vs untreated controls
How it was run: as §2

[23] = test system: VIOTR; experiment: Pre-emergence action against VIOTR; assay type: in vivo, Viola tricolor; details: Dosage 320 g/ha, pre-emergence
How it was run: as §1

[24] = test system: SETVI; experiment: Post-emergence action against SETVI; assay type: in vivo, Setaria viridis; details: post-emergence, dosage 80 g/ha, visual assessment about 3 weeks after treatment vs untreated controls
How it was run: as §2

[25] = test system: LOLRI; experiment: Pre-emergence action against LOLRI; assay type: in vivo, Lolium rigidum; details: dosage 320 g/ha, scored visually after 3 weeks vs untreated controls
How it was run: as §1

[26] = test system: POLCO; experiment: Post-emergence action against POLCO; assay type: in vivo, Polygonum convolvulus; details: post-emergence, dosage 80 g/ha
How it was run: as §2

[27] = test system: POLCO; experiment: Pre-emergence action against POLCO; assay type: in vivo, Polygonum convolvulus; details: Dosage 320 g/ha, pre-emergence
How it was run: as §1

[28] = test system: CYPES; experiment: Pre-emergence action against CYPES; assay type: in vivo, Cyperus esculentus; details: pre-emergence, dosage 320 g/ha, scored visually after 3 weeks vs untreated controls
How it was run: as §1

[29] = test system: ALOMY; experiment: Pre-emergence action against ALOMY; assay type: in vivo, Alopecurus myosuroides; details: dosage 320 g/ha; pre-emergence; scored visually after 3 weeks vs untreated controls; 100% = plants have died, 0% = like control plants
How it was run: as §1

[30] = test system: LOLRI; experiment: Post-emergence action against LOLRI; assay type: in vivo, Lolium rigidum; details: dosage 80 g/ha, visual assessment about 3 weeks after treatment vs untreated controls
How it was run: as §2

[31] = test system: LOLMU; experiment: Pre-emergence action against LOLMU; assay type: in vivo, Lolium multiflorum; details: dosage 320 g/ha, scored visually after 3 weeks vs untreated controls
How it was run: as §1

[32] = test system: LOLMU; experiment: Post-emergence action against LOLMU; assay type: in vivo, Lolium multiflorum; details: dosage 80 g/ha, visual assessment about 3 weeks after treatment vs untreated controls
How it was run: as §2

| SMILES | Pre-emergence action against AMARE (herbicidal activity) [1] | Post-emergence action against AMARE (herbicidal action in percent) [2] | Pre-emergence action against VERPE [3] | Post-emergence action against VERPE [4] | Pre-emergence action against AVEFA (herbicidal activity) [5] | Pre-emergence action against STEME [6] | SETVI (Table B8, pre-emergence herbicidal activity) [7] | Post-emergence action against VIOTR [9] | Pre-emergence action against ECHCG (herbicidal activity) [10] | Pre-emergence action against PHBPU [11] | Post-emergence action against ABUTH (herbicidal action in percent) [13] | Pre-emergence action against ABUTH (herbicidal activity) [14] | Post-emergence action against MATIN (herbicidal action in percent) [15] | Post-emergence action against CYPES (herbicidal action in percent) [16] | Post-emergence action against STEME [17] | Pre-emergence action against MATIN [18] | Post-emergence action against PHBPU [19] | Post-emergence action against ECHCG (herbicidal action in percent) [21] | Pre-emergence action against VIOTR [23] | Post-emergence action against SETVI (herbicidal action in percent) [24] | other results |
| --- | --- | --- | --- | --- | --- | --- | --- | --- | --- | --- | --- | --- | --- | --- | --- | --- | --- | --- | --- | --- | --- |
| CCn1nnnc1NC(=O)c1ccc(C(F)(F)F)c(C(=O)C2CC2)c1SC [2-60] | 100% | 100% | 100% | 100 | 100% | 100% | 100% | 100 | 100% | 100% | 100% | 100% | 90% | 90% | 100 | 100% | 100 | 100% | 100% | 100% | Pre-emergence action against HORMU [8]: 100%; Post-emergence action against HORMU [12]: 100; Post-emergence action against ALOMY [20]: 100%; Post-emergence action against AVEFA (herbicidal action in percent) [22]: 80%; Pre-emergence action against LOLRI (herbicidal activity) [25]: 100%; Post-emergence action against POLCO [26]: 90; Pre-emergence action against POLCO [27]: 100%; Pre-emergence action against CYPES (herbicidal activity) [28]: 100%; Pre-emergence action against ALOMY (herbicidal activity in percent) [29]: 100%; Post-emergence action against LOLRI (herbicidal action in percent) [30]: 90% |
| CCn1nnnc1NC(=O)c1ccc(C(F)F)c(C(=O)C2CC2)c1SC [2-67] | 100% | 100% | 100% | 90 | 100% | 100% | 100% | 100 | 100% | 90% | 100% | 100% | 100% | 80% | 100 | 100% | 100 | 100% | 100% | 100% | Pre-emergence action against HORMU [8]: 100%; Post-emergence action against HORMU [12]: 80; Post-emergence action against ALOMY [20]: 100%; Post-emergence action against AVEFA (herbicidal action in percent) [22]: 100%; Pre-emergence action against LOLRI (herbicidal activity) [25]: 100%; Post-emergence action against POLCO [26]: 100; Pre-emergence action against POLCO [27]: 90%; Pre-emergence action against ALOMY (herbicidal activity in percent) [29]: 100%; Post-emergence action against LOLRI (herbicidal action in percent) [30]: 80% |
| CCn1nnnc1NC(=O)c1ccc(Cl)c(C(=O)C2CC2)c1Cl [2-116] | 100% | 90% | 100% | 90 | 90% | 90% | 100% | 100 | 100% | 90% | 80% | 100% | 90% | 80% | 90 | 100% | 100 | 90% | 100% | 90% | Post-emergence action against ALOMY [20]: 80%; Pre-emergence action against LOLMU (herbicidal activity) [31]: 100%; Post-emergence action against AVEFA (herbicidal action in percent) [22]: 90%; Post-emergence action against POLCO [26]: 90; Pre-emergence action against POLCO [27]: 90%; Pre-emergence action against CYPES (herbicidal activity) [28]: 90%; Pre-emergence action against ALOMY (herbicidal activity in percent) [29]: 100%; Post-emergence action against LOLMU (herbicidal action in percent) [32]: 90% |
| CCCn1nnnc1NC(=O)c1ccc(C(F)F)c(C(=O)C2CC2)c1SC [3-67] | 100% | 100% | 100% | 80 | 100% | 90% | 100% | 100 | 100% | 100% | 100% | 100% | 100% | 80% | 100 | 100% | 100 | 100% | 100% | 100% | Pre-emergence action against HORMU [8]: 100%; Post-emergence action against HORMU [12]: 80; Pre-emergence action against LOLRI (herbicidal activity) [25]: 100%; Post-emergence action against POLCO [26]: 80; Pre-emergence action against POLCO [27]: 90%; Pre-emergence action against CYPES (herbicidal activity) [28]: 100%; Pre-emergence action against ALOMY (herbicidal activity in percent) [29]: 100%; Post-emergence action against LOLRI (herbicidal action in percent) [30]: 80% |
